Experimental data published in US11780845B2 (Relay Therapeutics, Inc., priority 2019, dated 2023).

target: FGFR2 (Homo sapiens (Human), UniProt P21802); assay: FGFR2 Biochemical Caliper Assay
Protocol: Compounds of the present invention were also tested in a FGFR2 Biochemical Caliper Assay. Compounds were prepared in 10 mM DMSO solution and serially diluted into 11 concentrations by 3-fold dilution. […] 5 uL of ATP solution (100 uM) was added to start the reaction and the plate was incubated for 90 minutes, then 70 uL of stopping buffer (0.5M EDTA) was added to terminate the reaction. Each well was analyzed using EZ reader.

Sequence of FGFR2 (P21802 22-821): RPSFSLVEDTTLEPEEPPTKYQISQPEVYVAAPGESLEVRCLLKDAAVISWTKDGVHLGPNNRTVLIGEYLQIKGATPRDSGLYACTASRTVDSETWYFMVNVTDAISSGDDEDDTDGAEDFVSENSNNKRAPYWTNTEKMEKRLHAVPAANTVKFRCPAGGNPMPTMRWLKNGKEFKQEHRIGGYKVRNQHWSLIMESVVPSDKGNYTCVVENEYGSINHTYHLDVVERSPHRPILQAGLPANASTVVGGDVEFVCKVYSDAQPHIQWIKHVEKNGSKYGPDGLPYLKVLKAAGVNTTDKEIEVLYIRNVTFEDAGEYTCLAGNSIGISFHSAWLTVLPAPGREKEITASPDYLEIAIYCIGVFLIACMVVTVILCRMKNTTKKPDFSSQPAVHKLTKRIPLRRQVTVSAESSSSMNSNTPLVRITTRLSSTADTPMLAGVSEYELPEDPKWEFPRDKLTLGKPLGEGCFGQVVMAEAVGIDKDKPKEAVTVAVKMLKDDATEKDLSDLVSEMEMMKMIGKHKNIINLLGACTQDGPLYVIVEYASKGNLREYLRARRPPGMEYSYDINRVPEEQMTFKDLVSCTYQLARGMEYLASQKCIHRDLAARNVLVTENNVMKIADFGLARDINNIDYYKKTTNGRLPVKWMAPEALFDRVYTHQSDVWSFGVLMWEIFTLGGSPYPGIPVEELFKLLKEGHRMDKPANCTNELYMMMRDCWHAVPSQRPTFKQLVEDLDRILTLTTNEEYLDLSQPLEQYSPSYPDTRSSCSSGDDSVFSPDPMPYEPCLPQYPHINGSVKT

| Structure (SMILES) | IC50 |
| --- | --- |
| C=C(C)C(=O)Nc1ccc(-c2c(-c3ccc(Oc4cccc(C)n4)cc3)c3c(N)ncnc3n2C)cc1COC [Example 403] | 100 to 250 nM |
| C=C(C)C(=O)Nc1ccc(-c2c(C3=CCC(C(=O)N4CCCC[C@@H]4C)CC3)c3c(N)ncnc3n2C)cc1 (stereo partly drawn) [Example 404] | 100 to 250 nM |
| Cc1cccc(Oc2ccc(-c3c(-c4cnc(C#N)nc4)n(C)c4ncnc(N)c34)cc2)n1 [Example 405] | < 100 nM |
| C=C(C)C(=O)Nc1ccc(-c2c(-c3ccc(C(=O)N4CCCC4)cc3)c3c(N)ncnc3n2C)cc1C [Example 407] | 1000 to 100000 nM |
| C=C(C)C(=O)Nc1ccc(-c2c(-c3ccc(C(=O)N(C)C(CF)CF)cc3)c3c(N)ncnc3n2C)cc1 [Example 412] | < 100 nM |
| C=C(C)C(=O)N(C)c1ccc(-c2c(-c3ccc(Oc4cccc(C)n4)cc3)c3c(N)ncnc3n2C)cc1 [Example 414] | 100 to 250 nM |
| C=C(C)C(=O)Nc1ccc(-c2c(C3=CC[C@H](C(=O)N4CC5CCC(C5)C4)CC3)c3c(N)ncnc3n2C)cc1 [Example 420] | 1000 to 100000 nM |
| C=C(C)C(=O)N(C)c1ccc(-c2c(-c3ccc(C(=O)NCC(C)(C)OC)cc3)c3c(N)ncnc3n2C)cc1 [Example 421] | 1000 to 100000 nM |
| C=C(C)C(=O)Nc1ccc(-c2c(-c3ccc(C(=O)N4CCCC4)nc3)c3c(N)ncnc3n2C)cc1 [Example 422] | 1000 to 100000 nM |
| C=C(C)C(=O)Nc1ccc(-c2c(-c3ccc(C(=O)N(CCN)CC(F)(F)F)cc3)c3c(N)ncnc3n2C)cc1 [Example 430] | 250 to 1000 nM |
| C=C(C)C(=O)Nc1ccc(-c2c(-c3ccc(C(=O)NCC(C)(C)OC)nc3)c3c(N)ncnc3n2C)cc1 [Example 438] | 1000 to 100000 nM |
| C=C(C)C(=O)Nc1ccc(-c2c(-c3cnn(Cc4cccc(C)n4)c3)c3c(N)ncnc3n2C)cc1 [Example 439] | 1000 to 100000 nM |
| C=C(C)C(=O)Nc1ccc(-c2c(-c3ccc(C(=O)N(C)CC4(OC)CC4)cc3)c3c(N)ncnc3n2C)cc1 [Example 440] | 1000 to 100000 nM |
| C=C(C)C(=O)Nc1ccc(-c2c(-c3ccc(Oc4ncc(F)cn4)c(N(C)C)c3)c3c(N)ncnc3n2C)cc1 [Example 443] | 1000 to 100000 nM |
| C=C(C)C(=O)Nc1ccc(-c2c(-c3ccc(Oc4ncc(OC)cn4)cc3)c3c(N)ncnc3n2C)cc1 [Example 450] | 250 to 1000 nM |
| C=C(C)C(=O)Nc1ccc(-c2c(-c3ccc(Oc4ncc(F)cn4)nc3)c3c(N)ncnc3n2C)cc1 [Example 453] | 1000 to 100000 nM |
| C=C(C)C(=O)Nc1ccc(-c2c(-c3ccc(C(=O)N(CCN(C)C)CC(F)(F)F)cc3)c3c(N)ncnc3n2C)cc1 [Example 454] | 250 to 1000 nM |
| C=C(C)C(=O)Nc1ccc(-c2c(-c3ccc(Oc4ncc(N(C)C)cn4)c(F)c3)c3c(N)ncnc3n2C)cc1 [Example 455] | 250 to 1000 nM |
| C=C(C)C(=O)Nc1ccc(-c2c(-c3ccc(Oc4ncc(N(C)C)cn4)cc3)c3c(N)ncnc3n2C)cc1 [Example 456] | 250 to 1000 nM |
| C=C(C)C(=O)Nc1ccc(-c2c(-c3ccc(C(=O)NCC4CCC4)c(C(C)=O)c3)c3c(N)ncnc3n2C)cc1 [Example 457] | 100 to 250 nM |
| C=C(C)C(=O)Nc1ccc(-c2c(-c3ccc(C(=O)N(C)CC4(F)COC4)cc3)c3c(N)ncnc3n2C)c(F)c1 [Example 467] | 100 to 250 nM |
| C=C(C)C(=O)Nc1ccc(-c2c(-c3ccc(C(=O)N(C)CC4CCOC4)cc3)c3c(N)ncnc3n2C)cc1 (stereo not drawn) [Example 469] | 250 to 1000 nM |
| C=C(C)C(=O)Nc1ccc(-c2c(-c3cc(F)c(C(=O)NCC(C)(C)OC)c(F)c3)c3c(N)ncnc3n2C)cc1 [Example 470] | 100 to 250 nM |
| C=C(C)C(=O)Nc1ccc(-c2c(-c3ccc(C(=O)N4CCCC4)cc3)c3c(N)ncnc3n2C)c(CC)c1 [Example 477] | 100 to 250 nM |
| C=C(C)C(=O)Nc1ccc(-c2c(-c3ccc(C(=O)N4CCCC4)cc3)c3c(N)ncnc3n2C)c(C2CC2)c1 [Example 478] | 100 to 250 nM |
| C=C(C)C(=O)Nc1ccc(-c2c(-c3cnc(Oc4cccc(C)n4)cn3)c3c(N)ncnc3n2C)cc1 [Example 480] | 250 to 1000 nM |
| C=C(C)C(=O)Nc1ccc(-c2c(-c3ccc(C(=O)N(C)Cc4ncno4)cc3)c3c(N)ncnc3n2C)cc1 [Example 481] | 1000 to 100000 nM |
